Test results as given in publication PMC6588243, “Fate of ptaquiloside—A bracken fern toxin—In cattle” (PLoS ONE, 2019).
Values joined by “and” are separate entries in the source; they are usually repeats but may differ in a detail not shown here. Equal entries are not always repeated. “Also recorded” adds a separate entry of the source.

Tests used:
[1] = Incubation of bracken extract in rumen liquid, in vitro; type: in vitro ADME, Jersey cows; conditions: for PTB concentration in rumen liquid: initial PTA 17 μM
Protocol: Samples of rumen contents were collected from two rumen fistulated Jersey cows. The cows were fed daily with 6 kg of complete feedingstuff (Danish Ragna Grønmix; Danish Agro, Karise, Denmark) and 2 kg of hay. Barley straw and water were provided ad libitum. The rumen liquid fraction was obtained by passing the digest through a 250 μm nylon filter. From each cow, 150 mL rumen liquid was pre-incubated at 37°C under CO2 atmosphere for 10 min before 5 mL of bracken extract was added in order to obtain an initial PTA concentration of 17 μM. PTA stability was assessed by removal of 2.5 mL sample for PTA determination after incubation for 0, 5, 15, 30, 60 and 120 min at 37 °C. The sample was immediately centrifuged for 3 min at 8,500 g and analysed following the method of Aranha et al.. The pH in rumen liquid was determined at the beginning and termination of the experiment.
Rumen liquid samples were cleaned on HLB cartridges and processed as plasma samples. PTA and PTB calibration curves were prepared in ruminal fluid deactivated by boiling for 5 minutes. The recovery of PTA and PTB in ruminal fluid was 74% (± 0.5%) and 80% (± 1.2%), respectively.

[2] = set-up: method as in PMID 21456622; conditions: calves fed P. esculentum, PTA dose 4.5 μmol kg^-1 b.w.; cited from earlier work
[3] = Urinary recovery of PTA and PTB after intravenous administration of PTA; type: in vivo, Jersey heifers; conditions: twelve hours after iv administration of PTA
Protocol: Intravenous administration of PTA. In Experiment 1 the dose of purified PTA (0.21 mg kg^-1 body weight (b.w.) / 0.527 μmoles kg^-1) was dissolved in 10 mL of sterile water in a brown glass vial 1 hour before administration and protected from light. The solution was injected through a catheter (Cavafix Certo: 45 cm, 16 G; B. Braun Melsungen AG, Melsungen, Germany) placed in the right jugular vein. Blood samples were collected through another catheter placed in the left jugular vein. Blood samples were collected in heparinized glass tubes before and at predetermined times (10, 20, 30, 45 min and 1, 2, 4, 6, 8, 12, 21 and 24 hours) after PTA administration. The blood was centrifuged for 15 min at 3000 g to separate plasma which then was stored immediately at -18°C until assayed within a week following the method of Aranha et al.. Urine was collected quantitatively in urinary bags (Ratiomed GmBH, München, Germany) through a Foley catheter (Rusch Silasil no 16; Teleflex, Milan, Italy) inserted into the bladder. […]
PTA and PTB were analysed by LC-MS after purification using solid phase extraction (SPE) columns as reported in Aranha et al.. The limit of quantification of PTA and PTB in plasma was 3.0 x 10^−3 μM and 9.30 x 10^−3 μM, respectively. Limit of quantifications in diluted urine was 13 x 10^−3 μM for PTA and 8.28 x 10^−3μM for PTB.

[4] = Incubation of bracken extract in rumen liquid, in vitro; type: in vitro ADME, Jersey cows; conditions: boiled (sterilized) or pre-frozen rumen fluid
[5] = cited from earlier work
[6] = cows fed bracken for 5 days, PTA dose 23 μmol kg^-1

Row | SMILES | PTB as share of the added PTA ([1]; 5 min after the start of incubation) [%] | PTB concentration in rumen liquid ([1]; after 120 min, 37 °C) [µM] | PTB as share of the added PTA ([1]; final sampling (120 min)) [%] | PTB concentration in rumen liquid ([1]; starting time, rumen liquid of two cows, 37 °C) | peak concentration of PTB in plasma relative to the single dose study of this paper [2] [times] | dose recovered in urine as PTB [3] [%] | stability of PTA in fresh rumen fluid (in words) ([1]; fresh rumen fluid, 37 °C, pH 6.6) | time during which PTA was observed in rumen liquid ([1]; fresh rumen liquid, 17 μM, 37 °C) [min] | degradation of PTA in boiled or pre-frozen rumen fluid [4] | time after feeding bracken at which PTA was found in milk [5] [h] | PTA excreted in milk as share of the dose [5, 6] | plateau of PTA excreted in milk [5, 6] [µM] | PTA concentration in milk ([5]; one cow fed 6 kg freshly cut bracken daily for 7 days, PTA 540 μmol day^-1) [µM] | dose recovered in urine as PTA [3] [%]
1 | Cc1cc2c(c(C)c1CCO)C(=O)[C@H](C)C2 [PTB, pterosin B] | 10 | 2.7 | 16 | 1.35 µM and 1.62 µM | 26 | 12 |  |  |  |  |  |  |  | 
2 | CC1=C[C@]2(O[C@@H]3O[C@H](CO)[C@@H](O)[C@H](O)[C@H]3O)C[C@@H](C)C(=O)[C@@H]2[C@](C)(O)C12CC2 [PTA, (2'R,3a'R,4'S,7a'R)-4'-Hydroxy-2',4',6'-trimethyl-3'-oxo-2',3',3a',4'-tetrahydrospiro[cyclopropane-1,5'-inden]-7a'(1'H)-yl β-D-glucopyranoside] |  |  |  |  |  |  | detectable in rumen fluid from cow no 1 only immediately after start; also recorded: lost within few minutes | ≤ 5 | did not reveal any degradation; also recorded: did not degrade PTA | 38 | 9.6 % of the dose | 50 | 0.28 | 30
